Consider one molecule from article PMC7248907, “Naphthoquinones as Covalent Reversible Inhibitors of Cysteine Proteases—Studies on Inhibition Mechanism and Kinetics” (Molecules, 2020).

Data set [1] addresses T1, NS3/NS2B protease of the Dengue virus (DENV PR) (Dengue virus type 2, UniProt P29990).
T1 construct: the NS3/NS2B protease of the Dengue virus (DENV PR)
Description: Fluorometric DENV NS2B/NS3 protease assay (Boc-Gly-Arg-Arg-AMC). It counts as biochemical. The conditions noted are these: [S] = 100 µM (Boc-Gly-Arg-Arg-AMC).

In data set [2] the target is T2, rhodesain (Trypanosoma brucei rhodesiense, UniProt Q95PM0).
T2 construct: made in house; host or cells: Pichia pastoris
The data set is described as follows: biochemical. It counts as biochemical. The conditions noted are these: read-out: Rhod. Ki.

The target of data set [3] is T3, cathepsin B (Homo sapiens, UniProt P07858).
T3 construct: purchased Calbiochem, Merck Millipore
The data set is described as follows: Fluorometric cathepsin B inhibition assay (Cbz-Phe-Arg-AMC). In kind it is biochemical. The conditions noted are these: read-out: Cath. B Ki.

Data set [4] concerns the target T4, cathepsin L (Homo sapiens, UniProt P07711). The data set is described as follows: Fluorometric cathepsin L inhibition assay (Cbz-Phe-Arg-AMC). In kind it is biochemical. Set-up: purchased Calbiochem, Merck Millipore.
Data set [5] concerns the target T4, cathepsin L. Description: Dilution assay (reversibility), cathepsin L. The conditions noted are these: 5×IC50, 15 min incubation, 50-fold dilution.
Description: Then, the mixture was diluted by 50-fold to yield a final inhibitor concentration of 10% of the IC50 concentration.
Fluorometric assays for cathepsin B and cathepsin L (Calbiochem, Merck
Millipore) were performed as described previously.[7,8] Cbz-Phe-Arg-AMC was used as substrate
(final conc.: 100 μM for cathepsin B, 6.5 μM for cathepsin L) in assay buffer (50 mM Tris, pH 6.5,
Recombinantly expressed rhodesain (0.9 mg/mL) or cathepsin L (Calbiochem, Merck Millipore) were
diluted 1:100 in enzyme buffer (rhodesain: 50 mM sodium acetate, pH 5.5, 5 mM EDTA, 200 mM
NaCl and 2 mM DTT; cathepsin L: 50 mM Tris, pH 6.5, 5 mM EDTA, 200 mM NaCl and 2 mM DTT)
and preincubated for 1 h at room temperature. 54 μL of the respective enzyme solution was treated
enzyme-inhibitor reactions were incubated for 15 min at room temperature to ensure complete
inhibition. 1.2 μL of each reaction mixture was diluted with 57.3 μL of the respective assay buffer
(rhodesain: 50 mM sodium acetate, pH 5.5, 5 mM EDTA, 200 mM NaCl, 0.005% Brij; cathepsin L:
Phe-Arg-AMC in DMSO (final conc.: 10 μM for rhodesain, 6.5 μM for cathepsin L) and monitored
with a Tecan Infinite M200 Pro plate reader (λ ex: 380 nm/λ em: 460 nm).
Data set [6] addresses T2, rhodesain. Description: Hydrolysis assay UV-Vis (ester hydrolysis by rhodesain). In kind it is biochemical. On the procedure: Since the esters and the free carboxylic acid have different UV-Vis characteristics, we recorded time-dependent absorbance spectra at 400 nm (Figure 9).
Figure 9 Kinetic analysis of the ester hydrolysis by rhodesain. […]
Hydrolysis assay – UV-Vis:
To a solution of rhodesain (10 μg/mL) in 197.5 μL reaction buffer (50 mM sodium acetate, pH 5.5,
(20 mM) was added and the absorbance was monitored for 2 h at 25 °C with a Tecan Spark 10M (λabs: […]

Data set [7] deals with T. b. brucei 449 cell line. Description: T. b. brucei cell survival assay (ATPlite). It counts as cell-based. To be noted: Trypanosoma brucei, 48 h; read-out: EC50 antitrypanosomal activity. On the procedure:
Benzyl ester 2 was tested for its antitrypanosomal activity as described previously.
5. T. b. brucei cell survival assay
Toxicity of 2 against trypanosomes ( T. b. brucei 449 cell line) were determined via an ATPlite assay as described previously[13–15] using the cellular ATP levels as a proxy for cell viability. 2 (5 mM stock solution in DMSO) was first diluted 1:3 in medium, followed by a 1:10 dilution step in a microplate and ten subsequent 1:2 dilution steps. 90 μL HMI-9 medium containing 2500 cells/mL were distributed in 96-well microplates (PerkinElmer). 10 μL of the 1:2 dilution step preparations of the tested compounds were added to the 90 μL cell suspension leading to final concentrations from 16.67 μM to 32.55 nM in the microplates. As a negative control, addition of 0.3% of DMSO corresponding to the highest DMSO concentration added by compound application was used. 10% DMSO was used as a positive control, since at this DMSO concentration, all cells die. […] 50 μL of ATPlite 1 step solution (PerkinElmer) was added to each well of the microplate and luminescence measured at room temperature with an Infinite® M200 PRO plate reader (Tecan Trading AG). The measured values were plotted against the compound concentrations top yield the dose-response curve. The EC 50 values were calculated using GraFit version 5.013 (Erithacus Software Ltd.).
(In general: ATP-based viability assays read luminescence as a measure of living cells.)

“Also recorded” adds a separate entry of the source. Where two headings read alike, the source gives them in different places.

T4 sequence (P07711 114-333): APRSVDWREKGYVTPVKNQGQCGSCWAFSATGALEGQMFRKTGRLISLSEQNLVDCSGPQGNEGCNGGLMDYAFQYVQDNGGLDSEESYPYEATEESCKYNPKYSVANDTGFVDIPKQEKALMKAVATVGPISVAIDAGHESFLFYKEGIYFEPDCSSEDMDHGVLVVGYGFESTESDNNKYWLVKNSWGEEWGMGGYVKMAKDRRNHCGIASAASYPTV
T2 sequence (Q95PM0 entry or part of it): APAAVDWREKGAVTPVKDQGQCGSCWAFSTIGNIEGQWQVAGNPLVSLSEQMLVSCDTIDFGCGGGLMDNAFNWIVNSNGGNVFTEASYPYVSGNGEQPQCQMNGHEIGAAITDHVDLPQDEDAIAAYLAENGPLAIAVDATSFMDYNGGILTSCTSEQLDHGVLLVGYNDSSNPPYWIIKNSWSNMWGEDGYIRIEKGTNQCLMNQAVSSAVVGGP
T1 sequence (P29990 1346-1475): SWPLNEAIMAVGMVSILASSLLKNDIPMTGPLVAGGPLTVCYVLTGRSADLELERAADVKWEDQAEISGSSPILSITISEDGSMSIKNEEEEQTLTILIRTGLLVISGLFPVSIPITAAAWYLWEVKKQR
T1 sequence (P29990 1476-1653): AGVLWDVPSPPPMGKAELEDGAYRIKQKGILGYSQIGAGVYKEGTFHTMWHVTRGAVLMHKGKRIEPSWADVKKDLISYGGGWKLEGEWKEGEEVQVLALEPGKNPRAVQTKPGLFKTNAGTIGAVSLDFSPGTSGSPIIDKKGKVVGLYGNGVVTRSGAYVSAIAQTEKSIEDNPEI

As for `CC(C)C[C@H](NC(=O)[C@H](Cc1ccccc1)NC1=C(C#N)C(=O)c2ccccc2C1=O)C(=O)OCc1ccccc1` [Compound 2], in data set [1], half-maximal inhibition (IC50) required 41000 nM. Also, the Ki came to 180 nM in data set [2]; 1900 nM in data set [3]; 54 nM in data set [4] (final complex, Dixon fit of vS vs [I], read-out: Cath. L Ki^* Method 2); 12 nM in data set [4] (final high-affinity complex, Ki/(1+k3/k4), read-out: Cath. L Ki^* Method 1); 300 nM in data set [4] (initial complex, Dixon fit of vi vs [I], read-out: Cath. L Ki Method 2); 160 nM in data set [4] (initial non-covalent complex, from kobs vs [I], read-out: Cath. L Ki Method 1). The Ki in data set [4] (reversible, time-dependent inhibition, final high-affinity complex, mean of method 1 and method 2, read-out: Cath. L Ki^*) is 33 nM. In data set [4] (Method 1), the “k3, cathepsin L” value came out at 0.0148 s⁻¹. The “k4, cathepsin L” value in data set [4] (Method 1) amounted to 0.0012 s⁻¹. In data set [4] (calculated by 0.693/k4), the “half-life t1/2 of final complex, cathepsin L” value was “around 10 min”. Also, the “Cath. L k3” value in data set [4] (second inhibition step, forward rate) worked out at 0.0148 s⁻¹. In addition, in data set [4] (second inhibition step, off-rate), the “Cath. L k4” value was found to be 0.0012 s⁻¹. The “reactivation of enzyme activity after dilution, cathepsin L” value in data set [5] was “full reactivation; also recorded: nearly fully recovered”. In data set [6] (Trypanosoma brucei rhodesiense, rhodesain enzyme solution, pH 5.5, absorbance at 400 nm vs time, read-out: t1/2 of ester hydrolysis by rhodesain), the half-life at 250 µM was 3.41 min. Also, the “turnover curve of absorbance at 400 nm vs. time with rhodesain” value in data set [6] (monitored for 2 h at 25 °C) was “hyperbolic turnover curves”. The EC50 in data set [7] was 120 nM.

As usually defined, the IC50 is the concentration that gives 50% inhibition. A higher IC50 goes with a need for much substance. The term EC50 denotes the concentration at which the effect is half-maximal.
